Columns and labels:
PC12 = assay: Protective effect against ischemic cell death induced by hypoxia and low glucose (Cell Titer-Glo cell viability); type: cell-based, rat; details: 30 μM, 2 h pre-incubation, then low glucose/zero percent O2 8 h, FIG. 1, n=10, Tukey-Kramer
Excerpt: The progress of visual impairment in glaucoma is associated with retinal ganglion cell (RGC) death due to blood flow failure occurring near the optic nerve (Folia Pharmacol. Jpn. 128, 255-258 (2006)). With the use of PC12, which is a typical neural cell line established from rat adrenal […] pheochromocytoma and used also as a model cell for the functional evaluation of RGC (J Neurosci Res. 2000 May 15; 60(4): 495-503), the cytoprotective effect of GGA against ischemic cell death induced by hypoxia and low glucose was evaluated.
Test samples were prepared as follows. The test substances were four types of GGAs that contain the all-trans form and the 5Z-mono-cis form at a weight ratio of 10:0, 8:2, 6:4, and 0:10, respectively. […]
After 8 hours of incubation, 100 μL of an equivalent mixture of a cell viability detection reagent Cell Titer-Glo (Promega) and PBS was added to each well and the luminescence produced by the reaction with ATP in living cells was measured with a luminometer (GloMax; Promega). The cell viability was calculated from the measured luminescence by the following formula and the cytoprotective effect of GGA against oxidative stress by hydrogen peroxide was examined. Cell viability(%)=100×[(luminescence of base- or GGA-treated group)/(luminescence of non-treated group)]

[1] = test system: rat models with glaucoma induced by NMDA; assay: Protective effect for retinal ganglion cells against nerve damage by NMDA (thickness of inner plexiform layer); type: in vivo; details: once a day
Excerpt: In recent years the glutamate analogue NMDA (N-methyl-D-aspartate) has been widely reported to be one of causative agents of neurodegenerative diseases including Alzheimer's disease. In the ophthalmic field, NMDA is considered to be involved in optic nerve damage in glaucoma (Brain Research Bulletin, 81 (2010) 349-358). Accordingly, in this experiment rat models with glaucoma induced by NMDA were used to evaluate the neuroprotective effect of GGA.
To Sprague-Dawley (SD) rats, the all-trans form, the 5Z-mono-cis form and teprenone were separately pre-administered by oral administration (Test Example 1), intravitreal administration (Test Example 2) or ocular instillation administration (Test Example 3) and 5 μL of NMDA was administered into the vitreous body to induce nerve damage. For Test Example 2, a marketed therapeutic eye drop for glaucoma, AIPHAGAN (trade name), was intravitreally administered as a positive control once a day for five days. For each of Test Examples, a base not containing GGA or AIPHAGAN was administered as a control in the same manner as described above.
The dosage and regimen of Test Examples 1 to 3 are shown in Table 1 and the constitution of the base used in each tests are shown in Table 2.
Three days after administration of NMDA, the eyeballs were harvested, fixed with half Karnovsky's fixative for 24 hours, embedded in paraffin, thin sectioned and stained with hematoxylin-eosin (HE) to prepare histopathological sections. The histological sections were observed under an optical microscope and the thickness (μm) of the inner plexiform layer (IPL) of the retina was measured. From the thickness of the inner plexiform layer (IPL) of the retina, the neuroprotective effects of the test preparations were evaluated.

[2] = test system: retinal detachment-induced animal; details: intraperitoneal administration; cited from earlier work
glaucoma rat model = details: intraperitoneal administration; cited from earlier work
[3] = test system: mouse with visual cell damage induced by light irradiation; details: oral administration; cited from earlier work
[4] = test system: mouse with retinal injury induced by ischemia; details: oral administration; cited from earlier work
[5] = test system: multiple sclerosis mouse model; details: oral administration; cited from earlier work
[6] = Test Example 1: oral 800 mg/kg, 2 days, NMDA 4 mM, FIG. 6, Dunnett

Compound | cytoprotective effect compared with GGA 6:4 (PC12) | neuroprotective effect against nerve damage by NMDA compared with base (IPL thickness) [1, 6] | neuroprotective effect against nerve damage by NMDA compared with base (IPL thickness) ([1]; Test Example 2: intravitreal 0.05% w/v, 5 days, NMDA 40 mM, FIG. 7, Tukey-Kramer) | apoptosis of visual cells [2] | expression of heat shock protein 70 [2] | expression of heat shock protein 72 (glaucoma rat model) | retinal ganglion cell death and optic nerve damage (glaucoma rat model) | induction of thioredoxin and heat shock protein 72 in the retinal pigment epithelium [3] | number of surviving retinal neurons [4] | cell loss in the ganglion [5] | number of degenerating axons in the optic nerve [5] | visual function [5]
CC(=O)CC/C=C(/C)CC/C=C(\C)CC/C=C(\C)CCC=C(C)C [5Z-mono-cis form, (5Z,9E,13E)-6,10,14,18-tetramethyl-5,9,13,17-nonadecatetrae n-2-one] | significantly higher cytoprotective effects | significant neuroprotective effects | significant neuroprotective effects | – | – | – | – | – | – | – | – | –
teprenone | – | did not show a significant neuroprotective effect | – | reduced the apoptosis of visual cells significantly | induced the expression of heat shock protein 70 | induced the expression of heat shock protein 72 | reduced retinal ganglion cell death and thereby ameliorated optic nerve damage | induced thioredoxin and heat shock protein 72 in the retinal pigment epithelium | significantly increased the number of surviving retinal neurons | prevented cell loss in the ganglion | reduced the number of degenerating axons in the optic nerve | improved the visual function

Source: patent US9724312B2, “Agent for the prevention, improvement or treatment of retinal disease” (ROHTO PHARMACEUTICAL CO., LTD., priority 2012, dated 2017)
